Data: article PMC5225183, “Fingerprinting of neurotoxic compounds using a mouse embryonic stem cell dual luminescence reporter assay” (Archives of Toxicology, 2016)
Where two headings read alike, the source gives them in different places.

Assays:
[1] = tested on: neural crest cell migration; set-up: method as in Zimmer et al. [2012]; conditions: ref Zimmer et al. [2012]; cited from earlier work
[2] = tested on: neuroepithelial precursor cell migration; set-up: method as in Zimmer et al. [2012]; conditions: ref Zimmer et al. [2012]; cited from earlier work
[3] = tested on: neuronal precursor cells derived from human embryonic stem cells; set-up: method as in Waldmann et al. [2014]; conditions: ref Waldmann et al. [2014]; cited from earlier work
[4] = PBPK reverse modeling of nominal equivalent concentration (NEC), rat data
Description: (§1) The lipid content and albumin concentrations of the test media N2 and BHK medium were calculated on the basis of the available information provided by the suppliers (Fig. S2A). The data on rat plasma have been adopted from (Verwei et al. [2006]). The original references are (Barber et al. [1990]) for albumin and (DeJongh et al. [1997]) for lipids. Human plasma values were taken from (Gulden and Seibert [2003]). The original data on albumin are from (Lindup [1987]) and for lipids from (Patterson et al. [1988]). Total protein concentrations were calculated based on the assumption that the protein molar mass is similar to the one of albumin (66 kDa). Albumin was assumed to represent 60 and 48 % of the total serum proteins (mg/ml) in human and rat (Baker et al. [1979]; Busher [1990]) (Fig. S2A).
(a) Developmental toxicity (DT)—inducing concentrations were extrapolated from the in vivo study reported in the document by the Australian Therapeutic Goods Administration (Australian Therapeutic Goods Administration [2014]). […] (b) Toxicokinetic parameters of abiraterone in rats were extracted from the available report from the TGA (Australian Therapeutic Goods Administration [2014]). […] (c) The nominal in vitro concentrations equivalent to the concentration used in vivo were calculated using the value of total protein concentration instead of albumin concentration. […]
(c) The nominal in vitro concentrations equivalent to the concentration used in vivo in rats and humans (Cmax and Cavg) were determined assuming only binding to the specific drug-binding proteins (albumin and/or α1-acid glycoprotein) (Fig. S2D).

[5] = PBPK reverse modeling of nominal equivalent concentration (NEC), human data
Description: as §1, with “To evaluate the human relevance of in vitro concentrations found to be toxic in this study, an in vitro–in vivo comparison of the toxicity data was performed using a physiology-based pharmacokinetic (PBPK) reverse modeling approach. […] The lipid” for “The lipid”
(a) Developmental toxicity (DT)—inducing concentrations were extrapolated from the in vivo study reported in the document by the Australian Therapeutic Goods Administration (Australian Therapeutic Goods Administration [2014]). In an embryo-fetal developmental toxicity study in rats, abiraterone acetate induced developmental toxicity when administered at oral doses of 10, 30 or 100 mg/kg/day throughout the period of organogenesis (gestational days 6–17). Findings include embryo-fetal lethality (increased postimplantation loss and decreased number of living fetuses), fetal developmental delay (skeletal effects), and urogenital effects (bilateral ureter dilation) at doses ≥10 mg/kg/day (Australian Therapeutic Goods Administration [2014]). (b) Toxicokinetic parameters of abiraterone in rats were extracted from the available report from the TGA (Australian Therapeutic Goods Administration [2014]). […] The average concentration (Cavg) was calculated from the ratio of AUC and the dose interval (τ) of 24 h. The percentage of plasma protein binding of the drug was reported as being 99.8 %, without relevant species differences occurring (US FDA [2011]). (c) The nominal in vitro concentrations equivalent to the concentration used in vivo were calculated using the value of total protein concentration instead of albumin concentration.
Clinical signs included malrotated forepaws/hindpaws, discoloration of the body surface, impaired coat growth, eye opacity, and eye discharge with absence of pupillary reflex were observed (US FDA [2012]). […] The Cavg was calculated as the ratio of AUC and the dose interval (τ) of 24 h. TF is reported to be extensively bound in plasma, probably mostly to albumin, with an average bound fraction of 99.46 % (Russo et al. [2013]). (c) The nominal in vitro concentrations equivalent to the concentration used in vivo in rats and humans (Cmax and Cavg) were determined assuming only binding to the specific drug-binding proteins (albumin and/or α1-acid glycoprotein) (Fig. S2D).
To compare the effective/toxic concentrations found in our study with relevant in vivo concentrations, we used a reverse pharmacokinetic modeling approach for three exemplary compounds: teriflunomide, geldanamycin, and abiraterone. Firstly, we used a literature data mining approach to identify toxic or clinically relevant plasma concentrations reported in published animal studies (in relation to developmental toxicity or neurotoxicity) or clinical measurements (mostly in relation to drug efficacy). Then those values were used as points-of-departure to calculate the nominal equivalent concentrations (NEC) in both cell culture media used in our study, the BHK and N2 medium. These two media (used to expose the ESCs and the ESC-derived neurons) contained different amounts of protein and lipid and therefore required separate calculations of the NEC. […]

[6] = set-up: method as in Australian Therapeutic Goods Administration [2014]; conditions: rats, toxic dose level 10 mg/kg/day; ref Australian Therapeutic Goods Administration [2014]; cited from earlier work
[7] = cited from earlier work
[8] = extracted from the literature; cited from earlier work
Toxicokinetics in rats = assay type: in vivo; conditions: rat, plasma
rats = conditions: Sprague Dawley rats, GD 6 through LD 20; ref US FDA [2012]; cited from earlier work
[9] = cited from earlier work; remark: listed apart in the source
[10] = Sprague Dawley, oral, rats, 0.3 mg/kg, estimated proportional to reported kinetics at 1 mg/kg (US FDA [2012])

Row | SMILES | Free concentration in vivo ([4]; Cavg) | Total concentration in vivo (ECpl) ([4]; Cavg) | Free concentration in vivo ([4]; Cmax) | Total concentration in vivo (ECpl) ([4]; Cmax) | Free concentration in vivo ([5]; Cavg) | Total concentration in vivo (ECpl) ([5]; Cavg) | Kow (octanol:water partition coefficient) [8] | other results
1 | CCCC(CCC)C(=O)O [Valproic acid] | – | – | – | – | – | – | – | concentration inhibiting neural crest cell migration [1]: 10 to 100 µM; concentration not affecting neuroepithelial precursor cell migration [2]: > 1 mM; range of tolerance [3]: up to 25 μM
2 | C[C@]12CC[C@H](O)CC1=CC[C@@H]1[C@@H]2CC[C@]2(C)C(c3cccnc3)=CC[C@@H]12 [Abiraterone] | 1.68e-05 nM | 0.00401 µM | 0.00013 nM | 0.0309 µM | 0.353 pM | 0.14 µM | 131826 | Free concentration in vivo ([5]; Cmax): 1.63 pM; Total concentration in vivo (ECpl) ([5]; Cmax): 0.647 µM; AUC [6]: 34 ng·h/mL; Cmax [6]: 10.8 ng/mL; AUC at steady state ([7]; humans, daily oral dose of 1000 mg as abiraterone acetate, ref Goldberg and Berrios-Colon [2013]): 1173 ng·h/mL; Cmax ([7]; humans, daily oral dose of 1000 mg/kg as abiraterone acetate, ref Goldberg and Berrios-Colon [2013]): 226 ng/mL
3 | C/C(O)=C(\C#N)C(=O)Nc1ccc(C(F)(F)F)cc1 [Teriflunomide] | 11.7 nM | 5.09 µM | 25.6 nM | 11.1 µM | 280000 pM | 165 µM | 327 | AUC (Toxicokinetics in rats; [10]): ~33000 ng·h/mL; Cmax (Toxicokinetics in rats; [10]): ~3000 ng/mL; 24 h AUC at steady state ([7]; healthy individuals, daily oral dose of 14 mg, ref Australian Therapeutic Goods Administration [2013]): 1070 µg·h/mL; oral dose leading to teratogenicity (rats): 0.3 mg/kg/day
4 | COC1=C2C[C@@H](C)C[C@H](OC)[C@H](O)[C@@H](C)/C=C(\C)[C@H](OC(N)=O)[C@@H](OC)/C=C\C=C(/C)C(=O)NC(=CC1=O)C2=O [Geldanamycin] | – | – | 8.91 nM | 2.23 µM | – | – | 417 | Cmax (Toxicokinetics in rats; Thy1-GFP transgenic, dose of 0.2 mg/kg, calculated from mouse volume of distribution): 1250 ng/mL; aqueous solubility [9]: poor
